Data set [1] deals with T1, EphA2 extracellular domain fused to Fc (EphA2-Fc) (Homo sapiens, UniProt P29317).
T1 construct: immobilized EphA2 extracellular domain fused to the Fc portion of an antibody (EphA2-Fc)
As to the kind of experiment: ELISA: inhibition of ephrinA5-AP binding to immobilized EphA2-Fc. The settings on record: inhibition of ephrin-A5 binding to EphA2; number of experiments in parentheses; read-out: Inc50 (nM) by ELISA. The source says:
FIG. 1A-1C illustrates an example of Potency and selectivity of EphA2-targeting dimeric peptides. (FIG. 1A) ELISAs comparing the ability of the peptides to inhibit binding of ephrin-A5 fused to alkaline phosphatase (ephrinA5-AP) to the immobilized EphA2 extracellular domain fused to the Fc portion of an antibody (EphA2-Fc). The graphs show averages ±SD from triplicate measurements from a representative experiment. IC50 values calculated from the fitted curves in each experiment are shown. Averages of IC50 values obtained from multiple experiments are shown in panel FIG. 1B and Table 3. The 10 nM peptide concentration is outlined in red. (FIG. 1B) Plot of the average IC50 values (listed in Table 3) for different ligands. […] (FIG. 1C) EphrinA5-AP binding to EphA receptors and ephrinB2-AP binding to EphB receptors in the presence of dimeric peptides representing each of the three configurations. Values are normalized to ephrin binding without peptide. The graphs show averages and SDs from triplicate measurements (with each measurement shown as a dot).

The target in the next data set is T2, EphA2 LBD (Homo sapiens, UniProt P29317).
T2 construct: made in house; host or cells: E. coli Origami 2(DE3)
The experiment in a line: Isothermal titration calorimetry (ITC) with soluble EphA2 LBD. It counts as binding. The procedure: (FIG. 10A-10E) The EphA2 LBD was titrated at 200-250 μM into 10-12.5 μM of the indicated peptide.
For ITC, all peptides are dissolved in DMSO and both the EphA2 LBD and the peptides are diluted to obtain a final buffer containing 9.5 mM HEPES, pH 7.9, 95 mM NaCl, and 5% DMSO. The experiments are carried out at 296 K (23° C.) using an ITC200 calorimeter (Microcal). Two-microliter aliquots of a peptide solution are injected into the cell containing 205 μL EphA2 LBD. 200-400 μM peptides are titrated into 20-40 μM EphA2 LBD. Experimental data are analyzed using the Origin software package (Microcal). The integrated values for the reaction heats are normalized to the amount of injected peptide after blank subtraction.
In general terms: ITC needs no label: the signal is the heat of the interaction.

The target in data set [2] is T3, EphA2 (Homo sapiens, UniProt P29317). As to the kind of experiment: Bias factor βlig (pY588 versus pAKT inhibition, PC3 cells, reference ephrinA1-Fc). It counts as cell-based. On the set-up: EphA2 is the prevalent endogenously expressed EphA receptor in these cells; endogenous in cells; host or cells: PC3 prostate cancer cells. The settings on record: for βu (bias factor βlig): Table 3, reference ligand ephrinA1-Fc (βlig=0). How it is done:
FIG. 6 illustrates an example where Ligands can bias EphA2 signaling responses. The bias factor βlig was calculated for the indicated ligands using ephrinA1-Fc as the reference ligand. Statistical significance for the comparison of the different ligands with the reference ligand ephrinA1-Fc (βlig=0) was determined by one sample t test; *, P<0.05; **, P<0.01; ***, P<0.001; ****, P<0.0001.
FIG. 14A-14E illustrates an example where distinct factors are responsible for EphA2 biased signaling induced by different ligands. (FIG. 14A) Etop values for EphA2 Y588 phosphorylation, as in FIG. 2C. (FIG. 14B) Etop values for inhibition of AKT phosphorylation. (FIG. 14C) Graph of the ratios of the Etop values for EphA2 Y588 phosphorylation and inhibition of AKT phosphorylation, which are used in the βlig calculation. (FIG. 14D) Graph of the ratios of the EC50 values for EphA2 Y588 phosphorylation and inhibition of AKT phosphorylation, which are used in the βlig calculation. (FIG. 14E) Equation used to calculate the bias factor βlig for each ligand. The terms of the equation are rearranged, compared to equation (1) in the Materials and Methods, to better conform to the graphs in FIG. 14A-14D. **, P<0.01; ***, P<0.001; ****, P<0.0001; ns, not significant for the comparison with ephrinA1-Fc by one-way ANOVA and Dunnett's posthoc test.
The possibility of EphA2 biased signaling by analyzing the dose-response curves obtained with endogenous EphA2 in PC3 cells (FIG. 2A) was explored using approaches developed for GPCRs. This involves using EphA2 Y588 phosphorylation and AKT phosphorylation quantified as a function of ligand concentration to determine and compare the potency (EC50) and efficacy (Etop) for the two responses induced by different ligands. Remarkably, large differences among the ligands in the Etop values for Y588 phosphorylation (FIGS. 2C, 2D and 14A), but not in the Etop values for AKT inhibition (FIGS. 2E and 14B), were observed. In terms of relative efficacies for pY588 and pAKT inhibition, the C-terminally linked dimers and monomeric ligands behave differently from ephrinA1-Fc, while the N-terminally linked dimers and the head-to-tail dimer (8) are similar to ephrinA1-Fc (FIG. 14C). […] Thus, the type of linkage affects EphA2 signaling properties induced by the dimeric peptides.
The determined EC50 and Etop values allowed us to calculate the bias factor βlig for the two different responses induced by the various ligands relative to ephrinA1-Fc as the reference ligand (FIG. 14E). […] Remarkably, the bias originates from different mechanisms that depend on the class of ligands, with the N-terminally linked and head-to-tail dimers modulating relative potencies and the C-terminally-linked dimers and monomers modulating relative efficacies.

A short description of data set [3]: Peptide solubility in PBS/H2O/DMSO. It counts as physicochemical. How it is done: Peptide identity and purity are documented by mass spectrometry and high-performance liquid chromatography (HPLC). The peptide solubility values are determined. Concentrated peptide stocks are prepared in DMSO or H2O and stored frozen at −80° C.
Data set [4] addresses T3, EphA2. The experiment in a line: EphA2 autophosphorylation on tyrosine 588 in PC3 cells (immunoblot dose-response). Type of data set: cell-based. On the set-up: EphA2 is the prevalent endogenously expressed EphA receptor in these cells; endogenous in cells; host or cells: PC3 prostate cancer cells. Conditions: for Etop pY588: Table 3, 15 min, saturating ligand, pY588/EphA2 normalized to ephrinA1-Fc. The procedure: (§1) (FIG. 2A) Dose-response curves for EphA2 autophosphorylation on tyrosine 588 (pY588; purple) and for downstream inhibition of AKT phosphorylation (magenta). PC3 cells were treated for 15 min with different concentrations of the indicated peptides. […] The graphs show quantifications from multiple blots (averages ±SE; the number of experiments used to generate each curve is shown in Table 3). […] (FIG. 2B) Examples of immunoblots of lysates from PC3 cells treated with the indicated concentrations of representative ligands. […] A white vertical line indicates removal of irrelevant lanes. […] The bars show averages ±SE, and the individual measurements are shown as black dots. […] Plots of Etop versus EC50 for pY588 in FIG. 2D and for pAKT inh in FIG. 2E. Averages ±SE are shown for the peptides and ephrinA1.
To examine the agonistic properties of the different dimeric peptide ligands, EphA2 autophosphorylation on tyrosine 588 (Y588) was measured, which is indicative of receptor activation and mediates binding of SH2 domain-containing proteins that link EphA2 to various downstream signaling pathways (FIG. 7). For these experiments, PC3 prostate cancer cells were stimulated with the dimeric peptides because EphA2 is the prevalent endogenously expressed EphA receptor in these cells, allowing comparisons with ephrins.
(A western blot detects proteins with antibodies after separation by electrophoresis.)

In a further data set the test system is AKT. The experiment in a line: Inhibition of AKT phosphorylation on S473 in PC3 cells. It counts as cell-based. The settings on record: for EC50 / Etop pAKT inhlb: Table 3; for EC50: PC3 cells treated for 15 min, read-out: ECsa pAKT inhlb.; for Etop pAKT inhlb: 15 min, 1-pAKT/AKT normalized to cells not treated with ligand. The procedure: as §1
Setting [5] is: DMSO, Table 4, third of PBS/H20/DMSO, read-out: Solubility in DMSO.
Setting [6] is: DMSO, third of PBS/H2O/DMSO, read-out: Solubility in DMSO.
Setting [7] is: PBS, Table 4, first of PBS/H20/DMSO, read-out: Solubility in PBS.
Setting [8] is: PBS, first of PBS/H2O/DMSO, read-out: Solubility in PBS.
Setting [9] is: water, Table 4, second of PBS/H20/DMSO, read-out: Solubility in H20.
The mark [10] stands for this setting: water, second of PBS/H2O/DMSO, read-out: Solubility in H2O.

Here are results for 2 molecules from patent US20230391826A1, “COMPOSITIONS AND METHODS FOR TREATING DISEASES” (Sanford Burnham Prebys Medical Discovery Institute, priority 2020, published 2023).

SMILES strings stand for the structures. Converted amounts (≈) assume the structure as drawn. Read-outs that look alike come from different tables or passages of the source. Where a SMILES comes first, the peptide text is derived from it. Bridges are numbered along the chain shown (N, C = ends). Roman numbers before positions name the chains, in order. [ ]: non-standard residue; d: D form. βAla = NCCC(=O)O

T3 sequence (P29317 24-976): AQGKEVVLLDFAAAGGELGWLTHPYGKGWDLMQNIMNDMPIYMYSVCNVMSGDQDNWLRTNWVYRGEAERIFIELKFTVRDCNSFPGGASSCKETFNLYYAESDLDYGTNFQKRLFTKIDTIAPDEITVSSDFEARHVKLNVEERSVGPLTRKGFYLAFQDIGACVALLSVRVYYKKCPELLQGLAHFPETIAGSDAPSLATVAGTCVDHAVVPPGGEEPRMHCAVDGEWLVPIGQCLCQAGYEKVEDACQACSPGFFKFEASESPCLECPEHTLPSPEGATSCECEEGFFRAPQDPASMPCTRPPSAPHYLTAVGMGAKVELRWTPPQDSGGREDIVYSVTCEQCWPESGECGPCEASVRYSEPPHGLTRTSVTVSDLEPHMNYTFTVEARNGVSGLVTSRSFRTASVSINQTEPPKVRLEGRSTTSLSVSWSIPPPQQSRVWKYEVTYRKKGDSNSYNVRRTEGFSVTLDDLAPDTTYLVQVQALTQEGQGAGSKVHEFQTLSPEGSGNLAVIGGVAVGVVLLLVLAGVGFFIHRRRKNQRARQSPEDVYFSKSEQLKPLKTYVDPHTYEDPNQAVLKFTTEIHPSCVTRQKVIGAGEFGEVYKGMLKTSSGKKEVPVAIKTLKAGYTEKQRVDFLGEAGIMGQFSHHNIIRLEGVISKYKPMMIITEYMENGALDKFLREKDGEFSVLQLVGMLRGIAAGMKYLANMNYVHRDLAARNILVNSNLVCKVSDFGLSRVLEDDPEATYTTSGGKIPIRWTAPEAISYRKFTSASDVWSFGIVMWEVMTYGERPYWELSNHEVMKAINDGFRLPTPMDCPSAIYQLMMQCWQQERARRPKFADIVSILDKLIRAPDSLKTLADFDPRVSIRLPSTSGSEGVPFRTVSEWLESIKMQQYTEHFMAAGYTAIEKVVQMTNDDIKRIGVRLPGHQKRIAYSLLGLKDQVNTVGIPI
T2 sequence (P29317 28-200): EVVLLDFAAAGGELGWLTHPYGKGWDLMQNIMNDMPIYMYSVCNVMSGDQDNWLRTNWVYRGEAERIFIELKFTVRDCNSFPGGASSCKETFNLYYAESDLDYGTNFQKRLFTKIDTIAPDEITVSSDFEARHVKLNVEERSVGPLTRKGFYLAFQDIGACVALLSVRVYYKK
T1 sequence (P29317 24-537 limits assumed): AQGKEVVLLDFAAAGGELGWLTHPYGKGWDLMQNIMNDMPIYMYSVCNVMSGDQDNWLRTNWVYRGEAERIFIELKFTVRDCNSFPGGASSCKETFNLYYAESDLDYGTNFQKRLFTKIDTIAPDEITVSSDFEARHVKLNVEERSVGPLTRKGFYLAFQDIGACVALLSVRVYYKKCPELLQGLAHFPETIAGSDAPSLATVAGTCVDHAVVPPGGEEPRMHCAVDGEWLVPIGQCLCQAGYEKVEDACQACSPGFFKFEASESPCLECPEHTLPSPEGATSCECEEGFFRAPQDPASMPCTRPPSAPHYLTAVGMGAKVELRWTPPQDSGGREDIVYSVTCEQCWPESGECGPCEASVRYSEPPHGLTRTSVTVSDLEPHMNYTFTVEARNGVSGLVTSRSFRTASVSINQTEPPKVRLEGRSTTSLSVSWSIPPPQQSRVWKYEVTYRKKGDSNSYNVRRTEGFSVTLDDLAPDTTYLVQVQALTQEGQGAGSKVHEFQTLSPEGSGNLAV

Consider `CC(C)C[C@H](NC(=O)[C@H](Cc1c[nH]c2ccccc12)NC(=O)CCN)C(=O)N[C@@H](C)C(=O)N[C@@H](Cc1ccc(O)cc1)C(=O)N1CCC[C@H]1C(=O)N[C@@H](CC(=O)O)C(=O)N[C@@H](CO)C(=O)N[C@H](C(=O)N1CCC[C@H]1C(=O)N[C@@H](Cc1ccc(O)cc1)C(=O)NCC(=O)N[C@@H](CO)C(=O)NCC(=O)N[C@@H](CSSC[C@H](NC(=O)CNC(=O)[C@H](CO)NC(=O)CNC(=O)[C@H](Cc1ccc(O)cc1)NC(=O)[C@@H]1CCCN1C(=O)[C@@H](NC(=O)[C@H](CO)NC(=O)[C@H](CC(=O)O)NC(=O)[C@@H]1CCCN1C(=O)[C@H](Cc1ccc(O)cc1)NC(=O)[C@H](C)NC(=O)[C@H](CC(C)C)NC(=O)[C@H](Cc1c[nH]c2ccccc12)NC(=O)CCN)C(C)C)C(=O)O)C(=O)O)C(C)C` [compound 1, βA-WLA-YGSGC dimer (C-ter)] (I: H-[βAla]WLAYPDSVPYGSGC-OH / II: H-[βAla]WLAYPDSVPYGSGC-OH; disulfide I:15-II:15; N-terminus and C-terminus assumed), for which, in data set [1], the IC50 is 71 ± 26 nM. Further, the dissociation constant (Kd) at EphA2 LBD was 2900 nM. Further, the “N (binding stoichiometry by ITC)” value at EphA2 LBD (Table 3) is given as “N = 1.7 ± 0.2”. Moreover, the “-TΔS” value at EphA2 LBD (Table 6) is recorded as 16.30 ± 11 kcal/mol. Also, on EphA2 LBD (Table 6, binding stoichiometry), the N is on record as 1.7 ± 0.2. Moreover, on EphA2 LBD (Table 6, change in Gibbs energy), the “ΔG” value was -7.55 ± 0.27 kcal/mol. Besides, the “ΔH” value on EphA2 LBD (Table 6, change in enthalpy) was -23.85 ± 11 kcal/mol. For the same molecule, the “βu (bias factor βlig)” value at EphA2 [2] amounted to 0.506 ± 0.12. The solubility in data set [3] (setting [5]) is 5000 µg/mL (≈ 1580 µM); in data set [3] (setting [6]), 5000 µg/mL (≈ 1580 µM); in data set [3] (setting [7]), less than 100 µg/mL; in data set [3] (setting [8]) it was less than 100 µg/mL; in data set [3] (setting [9]), less than 100 µg/mL; in data set [3] (setting [10]), less than 100 µg/mL. Also, at EphA2 [4], the “Etop pY588” value is recorded as 0.49 ± 0.06. Also, in the data set with AKT, the EC50 turned out to be 39 ± 8 nM. Also, the “Etop pAKT inhlb” value in the data set on AKT (PC3 cells) is given as 0.90 ± 0.04.
For `CC(C)C[C@H](NC(=O)[C@H](Cc1c[nH]c2ccccc12)NC(=O)[C@H](C)NC(=O)CNC(=O)[C@@H](N)CSSC[C@H](N)C(=O)NCC(=O)N[C@@H](C)C(=O)N[C@@H](Cc1c[nH]c2ccccc12)C(=O)N[C@@H](CC(C)C)C(=O)N[C@@H](C)C(=O)N[C@@H](Cc1ccc(O)cc1)C(=O)N1CCC[C@H]1C(=O)N[C@@H](CC(=O)O)C(=O)N[C@@H](CO)C(=O)N[C@H](C(=O)N1CCC[C@H]1C(=O)N[C@@H](Cc1ccc(O)cc1)C(=O)N[C@@H](CCCNC(=N)N)C(=O)N1CCC[C@H]1C(=O)N[C@@H](CCCCN)C(N)=O)C(C)C)C(=O)N[C@@H](C)C(=O)N[C@@H](Cc1ccc(O)cc1)C(=O)N1CCC[C@H]1C(=O)N[C@@H](CC(=O)O)C(=O)N[C@@H](CO)C(=O)N[C@H](C(=O)N1CCC[C@H]1C(=O)N[C@@H](Cc1ccc(O)cc1)C(=O)N[C@@H](CCCNC(=N)N)C(=O)N1CCC[C@H]1C(=O)N[C@@H](CCCCN)C(N)=O)C(C)C` [compound 6, CGA-WLA-YRPKam dimer (N-ter)], the IC50 in data set [1] turned out to be 0.4 ± 0.1 nM; in the data set with AKT (PC3 cells), 0.043 ± 0.007 nM. At EphA2 [2], the “βu (bias factor βlig)” value is listed as 0.51 ± 0.13. In addition, the Blig on EphA2 [2] (bias factor, reference ligand ephrinA1Fc) was 0.36 ± 0.09. Further, the solubility in data set [3] (setting [5]) was 10000 µg/mL (≈ 2750 µM); in data set [3] (setting [6]), 10000 µg/mL (≈ 2750 µM); in data set [3] (setting [7]) it was less than 100 µg/mL; in data set [3] (setting [8]), less than 100 µg/mL; in data set [3] (setting [9]), 5000 µg/mL (≈ 1370 µM); in data set [3] (setting [10]), 5000 µg/mL (≈ 1370 µM). Besides, on EphA2 [4], the “Etop pY588” value was 0.98 ± 0.08. The “Emax PY588” value on EphA2 [4] (ephrinA1Fc = 1.00) turned out to be 0.80 ± 0.01. Moreover, the results for the EC50 on EphA2 [4] (read-out: EC50 PY588) and with AKT were 0.12 ± 0.01 nM and 0.08 ± 0.02 nM, respectively. Moreover, in the data set on AKT (PC3 cells), the “Etop pAKT inhlb” value amounted to 0.97 ± 0.03.

One may read the Kd as the concentration at which binding is half-saturated. The low end stands for tighter binding, the high end for weaker binding. As usually defined, the solubility is how much of the substance goes into solution per volume.
